Results reported in publication PMC5706701, “Development of a homogenous high-throughput assay for inositol hexakisphosphate kinase 1 activity” (PLoS ONE, 2017).
Structures can show the parent of a compound that is named as a salt. Where two headings read alike, the source gives them in different places.

Biological target: T1, Human IP6K1 (Homo sapiens, UniProt Q92551)
T1 construct: GST (N, cleaved yes); made in house; host or cells: C43 E. coli, pGEX-6P-2
Test: IP6K1 high-throughput screen of the Sigma LOPAC (ADP-Glo Max, single point);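 further: final compound concentration 10µM in 5% DMSO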
Type: biochemical

[1] = Sigma LOPAC single-point screen, ADP-Glo Max raw signal per well
[2] = Sigma LOPAC single-point screen, Z-score from plate average and StDev
[3] = LOPAC single-point screen, ADP-Glo Max raw signal per well
[4] = LOPAC single-point screen, Z-score against plate average and StDev
[5] = LOPAC single-point screen, ADP-Glo Max luminescence raw signal per well
[6] = LOPAC single-point screen, Z-score relative to plate average and StDev
[7] = LOPAC single-point screen, Z-score from raw signal with plate average and StDev

T1 sequence (Q92551 whole entry): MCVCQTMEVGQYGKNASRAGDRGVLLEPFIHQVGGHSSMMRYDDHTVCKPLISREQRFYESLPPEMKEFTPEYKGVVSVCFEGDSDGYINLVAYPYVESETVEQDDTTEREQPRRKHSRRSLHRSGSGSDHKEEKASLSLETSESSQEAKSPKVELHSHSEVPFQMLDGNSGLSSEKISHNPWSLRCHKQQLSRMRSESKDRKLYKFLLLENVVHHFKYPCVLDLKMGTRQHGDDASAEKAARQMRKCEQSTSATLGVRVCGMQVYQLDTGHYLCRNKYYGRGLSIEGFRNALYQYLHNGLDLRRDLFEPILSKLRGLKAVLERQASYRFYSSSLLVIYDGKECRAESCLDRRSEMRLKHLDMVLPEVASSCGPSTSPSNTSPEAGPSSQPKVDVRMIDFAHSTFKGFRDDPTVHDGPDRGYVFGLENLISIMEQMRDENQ

NC(=O)CN1CCCC1=O [Piracetam]
Raw Signal [1]: 58233
Z-score [2]: 0.6451

CNCC[C@@H](Oc1ccccc1C)c1ccccc1 [Tomoxetine]
Raw Signal [1]: 58582
Z-score [2]: 0.497

Oc1cc(-c2ccccc2)nc2nc(Cl)ccc12
Raw Signal [3]: 57826
Z-score [4]: -0.01534

O=c1[nH]c2cc(Cl)ccc2c(O)c1-c1cccc(Oc2ccccc2)c1 [L-701,324]
Raw Signal [5]: 49431
Z-score [6]: -0.8338

CCCCc1oc2ccccc2c1C(=O)c1cc(I)c(OCCN(CC)CC)c(I)c1 [Amiodarone hydrochloride]
Raw Signal [3]: 57216
Z-score [7]: -0.1228

C[C@@H](N)[C@H]1CC[C@H](C(=O)Nc2ccncc2)CC1.Cl.Cl [Y-27632 dihydrochloride]
Raw Signal [3]: 53228
Z-score [7]: -0.3938

CC(C)(C)NCC(O)c1ccc(O)c(CO)c1.CC(C)(C)NCC(O)c1ccc(O)c(CO)c1.O=S(=O)(O)O (stereo not shown) [Albuterol hemisulfate]
Raw Signal [3]: 54773
Z-score [7]: -0.243

CCCCCCCCCCCCCCCCOCC(COCC(F)(F)F)OP(=O)(O)OC (stereo not shown) [MJ33]
Raw Signal [1]: 57341
Z-score [2]: 0.4953

Oc1cc2c(cc1O)CN(C(=S)NCCc1ccc(Cl)cc1)CCC2 [Capsazepine]
Raw Signal [3]: 54995
Z-score [4]: -0.03494

Cn1c(=O)c2[nH]c(-c3ccc(S(=O)(=O)O)cc3)nc2n(C)c1=O [8-(p-Sulfophenyl)theophylline]
Raw Signal [3]: 56907
Z-score [7]: -0.1772

C[N+](C)(C)CC#CCOC(=O)Nc1cccc(Cl)c1.[Cl-] [McN-A-343]
Raw Signal [3]: 55957
Z-score [7]: -0.3445

CC(N)Cc1c[nH]c2ccc(OCc3cccs3)cc12 (stereo not shown) [BW 723C86]
Raw Signal [5]: 55162
Z-score [6]: -0.4845

Nc1ccc(CCN2CCN(c3cccc(C(F)(F)F)c3)CC2)cc1 [PAPP]
Raw Signal [3]: 56132
Z-score [4]: 0.02102

O=c1onc2n1-c1cc(Br)ccc1OC2 [NS 2028]
Raw Signal [3]: 54790
Z-score [4]: 0.06662

NC(CP(=O)(O)O)C(=O)O (racemic) [(±)-2-Amino-3-phosphonopropionic acid]
Raw Signal [5]: 53469
Z-score [6]: -0.7827

COc1cc(CC(C)N)c(OC)cc1I.Cl (racemic) [(±)-DOI hydrochloride]
Raw Signal [5]: 52125
Z-score [6]: -0.6178

CN(C)CCCO[C@@H]1[C@H]2OC(C)(C)O[C@H]2O[C@@H]1[C@H](O)CO [Amiprilose hydrochloride]
Raw Signal [5]: 53728
Z-score [6]: -0.7371

CNCC[C@@H](Oc1ccc(C(F)(F)F)cc1)c1ccccc1.Cl [R-(-)-Fluoxetine hydrochloride]
Raw Signal [5]: 63921
Z-score (LOPAC single-point screen, Z-score from plate average and StDev): 1.778

COc1cc2c(CCNC(C)=O)c[nH]c2cc1Cl [6-Chloromelatonin]
Raw Signal [1]: 61765
Z-score [2]: 0.6784

C[C@]12CC[C@@H](O)C[C@@H]1CC[C@@H]1[C@@H]2CC[C@]2(C)C(=O)CC[C@@H]12 [Androsterone]
Raw Signal: 54396
Z-score: -0.6195

C[C@H]1O[C@@H](n2cc(F)c(=O)[nH]c2=O)[C@H](O)[C@@H]1O [5-fluoro-5-deoxyuridine]
Raw Signal [3]: 53997
Z-score [7]: -0.2376

Cn1c(=O)c2c(nc(C=Cc3cccc(Cl)c3)n2C)n(C)c1=O [8-(3-Chlorostyryl)caffeine]
Raw Signal [3]: 56359
Z-score [4]: 0.2421

Cc1cnc(C(=O)NCCc2ccc(S(=O)(=O)NC(=O)NC3CCCCC3)cc2)cn1 [Glipizide]
Raw Signal [1]: 60018
Z-score [2]: 0.9852

NC(=Nc1ccccc1)NC(=O)c1nc(Cl)c(N)nc1N [Phenamil methanesulfonate]
Raw Signal [5]: 52022
Z-score [6]: -0.7775

CNCCc1c[nH]c2ccc(O)cc12.O=C(O)C(=O)O
Raw Signal [3]: 53556
Z-score [7]: -0.1407

O=C(O)/C=C\C(=O)O.O=[N+]([O-])c1ccc2nc(N3CCNCC3)ccc2c1 [Quipazine, 6-nitro-, maleate]
Z-score [7]: -0.2764

CCc1cccc(N(C)C(N)=Nc2cccc3ccccc23)c1 [CNS-1102]
Raw Signal [1]: 64774
Z-score [2]: 1.208

N[C@H](C(=O)O)c1cc(O)no1 (racemic) [(±)-Ibotenic acid]
Raw Signal [1]: 57640
Z-score [2]: 0.5455

CC(N)(C(=O)O)c1ccc(C(=O)O)cc1 (racemic) [(±)-alpha-Methyl-4-carboxyphenylglycine]
Raw Signal [3]: 51961
Z-score [7]: -0.4087

CC[C@H](NC(=O)c1c(C)c(-c2ccccc2)nc2ccccc12)c1ccccc1 [SB 222200]
Raw Signal [3]: 57369
Z-score [7]: -0.09583

CC(C)NNC(=O)c1ccncc1.O=P(O)(O)O [Iproniazid phosphate]
Raw Signal [1]: 60567
Z-score [2]: 1.037

CS(=O)(=O)O.Cc1c(C(=O)c2cccc3ccccc23)c2cccc3c2n1[C@H](CN1CCOCC1)CO3 [(R)-(+)-WIN 55,212-2 mesylate]
Raw Signal [1]: 62593
Z-score [2]: 1.276

COc1ccc(OC)c(C(O)C(C)N)c1 (stereo not shown) [Methoxamine hydrochloride]
Raw Signal [1]: 57572
Z-score [2]: 0.5341

CN(C)CCOC(C)(c1ccccc1)c1ccccn1 (stereo not shown) [Doxylamine succinate]
Raw Signal [5]: 49925
Z-score [6]: -1.065

O=C(/C=C/c1ccc(O)c(O)c1)OCCc1ccccc1 [Caffeic acid phenethyl ester]
Raw Signal [5]: 53915
Z-score [6]: -0.7042

C#CCOC(=O)C1=CCCN(C)C1 [Arecaidine propargyl ester hydrobromide]
Raw Signal [3]: 56259
Z-score [7]: -0.2913

CCOC(=O)Nc1ccc(NCc2ccc(F)cc2)nc1N [Flupirtine maleate]
Raw Signal [3]: 54811
Z-score [4]: -0.07231

CC(C)[C@H]1CN[C@H](C(=O)O)[C@H]1CC(=O)O [Dihydrokainic acid]
Raw Signal [3]: 53229
Z-score [7]: -0.3936

CN(C)CCCN1c2ccccc2CCc2ccc(Cl)cc21 [Clomipramine hydrochloride]
Raw Signal [1]: 60543
Z-score [2]: 0.4632

Cc1nc(N=Nc2ccc(C(=O)O)cc2)c(COP(=O)(O)O)c(C=O)c1O [MRS 2159]
Raw Signal [5]: 51283
Z-score [6]: -0.5226

C[C@H]1C[C@H]2[C@@H]3CCC4=CC(=O)C=C[C@]4(C)[C@@]3(Cl)[C@@H](O)C[C@]2(C)[C@@]1(O)C(=O)CO [Beclomethasone]
Raw Signal [3]: 55439
Z-score [7]: -0.4358

Cl.Nc1c2c(nc3ccccc13)CCCC2
Raw Signal: 49916
Z-score: -1.409

CC(NC(C)(C)C)C(=O)c1cccc(Cl)c1 (stereo not shown) [Bupropion hydrochloride]
Raw Signal [3]: 56700
Z-score [7]: -0.2137

Nc1ncnc2c1ncn2[C@@H]1O[C@H](CO)[C@@H](O)[C@H]1O [Adenosine]
Raw Signal [3]: 56689
Z-score [7]: -0.2156

CCN(CC)C(C)C(=O)N1c2ccccc2Sc2ccccc21.Cl (stereo not shown)
Raw Signal [3]: 55206
Z-score [4]: 0.007914

Br.COc1ccc(-c2ccc(=N)n(CCCC(=O)O)n2)cc1 [SR-95531]
Raw Signal: 59972
Z-score: 0.7671

CC(C)C1C2CCC(C2)C1N.Cl (racemic) [AGN 192403 hydrochloride]
Raw Signal [5]: 53820
Z-score [6]: -0.7209

Cl.Clc1cc(I)cc(Cl)c1NC1=NCCN1 [p-Iodoclonidine hydrochloride]
Raw Signal [3]: 52843
Z-score [7]: -0.2605

O=C(O)Cc1c[nH]c2ccc(O)cc12 [5-Hydroxyindolacetic acid]
Raw Signal [1]: 56978
Z-score [2]: 0.3678

Cl.Fc1ccc(CN(C2=NCCN2)c2c(Cl)cccc2Cl)cc1 [IMID-4F hydrochloride]
Raw Signal [1]: 60859
Z-score [2]: 1.156

NCCNC(=O)Cc1ccc(NC(=O)Cc2ccc(Nc3ncnc4c3ncn4[C@@H]3O[C@H](CO)[C@@H](O)[C@H]3O)cc2)cc1 [Adenosine amine congener]
Raw Signal [3]: 58651
Z-score [4]: 0.13

C[N+](C)(C)CCOC(N)=O [Carbachol]
Raw Signal [1]: 62361
Z-score [2]: 0.7834

CC(=O)OCC1=C(C(=O)O)N2C(=O)[C@@H](NC(=O)CSc3ccncc3)[C@H]2SC1 [Cephapirin sodium]
Raw Signal [5]: 53491
Z-score [6]: -0.7789

CCN(CC)CCOC(=O)c1cc(Cl)c(N)cc1OC.Cl [SDZ-205,557 hydrochloride]
Raw Signal [3]: 56215
Z-score [4]: 0.03715

CN1CCN(c2nc3cc(C(F)(F)F)ccc3n3cccc23)CC1.O=C(O)/C=C\C(=O)O [CGS-12066A maleate]
Raw Signal [1]: 58347
Z-score [2]: 0.6458

CC1=NS(=O)(=O)c2cc(Cl)ccc2N1 [Diazoxide]
Raw Signal [1]: 58351
Z-score [2]: 0.6466

CSc1nc(N)c2ncn([C@@H]3O[C@H](COP(=O)(O)OP(=O)(O)O)[C@@H](O)[C@H]3O)c2n1.[Na].[Na].[Na]
Raw Signal [3]: 54295
Z-score [4]: -0.01655

O=c1cc(-c2ccc(O)c(O)c2)oc2cc(O)cc(O)c12 [Luteolin]
Raw Signal [5]: 50800
Z-score [6]: -0.6038

C#C[C@]1(O)CC[C@H]2[C@@H]3CCC4=Cc5oncc5C[C@]4(C)[C@H]3CC[C@@]21C [Danazol]
Raw Signal [3]: 54357
Z-score [7]: -0.1645

CN1CCCC1c1cccnc1.Cc1ccc(C(=O)OC(C(=O)O)C(OC(=O)c2ccc(C)cc2)C(=O)O)cc1 (stereo not drawn) [(+)-Nicotine (+)-di-p-toluoyl tartrate]
Raw Signal: 52925
Z-score: -0.2467

COc1ccccc1N1CCN(CCCCNC(=O)c2ccc3ccccc3c2)CC1 [BP 897]
Raw Signal [1]: 60942
Z-score [2]: 0.5335

CCCCCN(CCCCC)C(=O)C(CCC(=O)O)NC(=O)c1ccc(Cl)c(Cl)c1 (stereo not shown) [Lorglumide sodium]
Z-score [4]: 0.04041

CCCN(CCC)C1Cc2cc(OC)c(OC)cc2C1.O=C(O)/C=C\C(=O)O [U-99194A maleate]
Raw Signal [3]: 57664
Z-score [4]: 0.3187
